The text below walks through data of US10952999B2, “Inhibitor of cyclin-dependent kinase CDK9” (GENFLEET THERAPEUTICS (SHANGHAI) INC., priority 2017, dated 2021).

For assay [1], the system named is acute B cell leukemia cell line MEC-2. Put plainly: Cancer cell growth, Cell Titer-Glo cell viability assay, 72 hours. It is filed as cell-based. As to conditions: MEC2; MEC-2, 72 hours. Summed up: (§1)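 Cells exposed to compound, then living cells quantified via intracellular ATP using CellTiter-Glo chemiluminescence. Growth inhibition expressed as GI50 and IC50.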

Assay [2] has as its system human non-small cell lung cancer cell H358. The assay is described as above. The following applies: NCI-H358, H358, 72 hours. It is filed as cell-based. Summed up:
as §1

For assay [3], the system named is human breast cancer cell SK-Br-3. The assay is described as above. The assay is classed as cell-based. As to conditions: SK-Br-3, 72 hours. Summed up: as §1
Assay [4] deals with human breast cancer cell MDA-MB-468. The assay is described as above. It is filed as cell-based. The following applies: MDA-MB-468, 72 hours. Put shortly: as §1
Assay [5] deals with acute myelocytic leukemia (AML) OCI-AML-3. The assay is described as above. It is filed as cell-based. As to conditions: Homo sapiens, OCI-AML-3; OCI-AML3, 72 hours. Summed up:
as §1

In a further assay the target is T1, CDK16/cyclin Y (Homo sapiens, UniProt Q00536).
T1 construct: purchased Invitrogen, USA
T1 sequence (Q00536 whole entry): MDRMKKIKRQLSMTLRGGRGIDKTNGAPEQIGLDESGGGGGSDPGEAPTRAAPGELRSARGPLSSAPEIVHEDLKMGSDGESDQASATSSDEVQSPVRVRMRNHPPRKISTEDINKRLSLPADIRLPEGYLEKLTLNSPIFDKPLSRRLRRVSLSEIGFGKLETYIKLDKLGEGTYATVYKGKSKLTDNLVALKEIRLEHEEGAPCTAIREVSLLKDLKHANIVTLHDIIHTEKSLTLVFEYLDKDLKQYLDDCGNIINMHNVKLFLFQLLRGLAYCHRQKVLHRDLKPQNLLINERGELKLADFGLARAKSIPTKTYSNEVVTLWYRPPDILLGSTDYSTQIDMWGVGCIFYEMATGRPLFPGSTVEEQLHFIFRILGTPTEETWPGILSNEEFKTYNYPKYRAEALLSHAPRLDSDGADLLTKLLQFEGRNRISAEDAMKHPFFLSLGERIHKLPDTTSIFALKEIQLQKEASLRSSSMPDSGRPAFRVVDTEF
T1 sequence (Q8ND76 whole entry partner): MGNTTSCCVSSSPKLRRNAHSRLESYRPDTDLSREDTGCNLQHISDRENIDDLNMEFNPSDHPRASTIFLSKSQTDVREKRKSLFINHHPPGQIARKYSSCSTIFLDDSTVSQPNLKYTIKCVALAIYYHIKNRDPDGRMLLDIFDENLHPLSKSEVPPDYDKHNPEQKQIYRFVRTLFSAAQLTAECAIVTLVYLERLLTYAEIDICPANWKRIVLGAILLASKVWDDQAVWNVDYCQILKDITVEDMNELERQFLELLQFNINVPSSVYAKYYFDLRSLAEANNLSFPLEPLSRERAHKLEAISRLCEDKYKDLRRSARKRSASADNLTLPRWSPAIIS
Put plainly: Enzyme assay for inhibition of CDK protein in vitro (Z-LYTE). The assay is classed as biochemical. On the procedure: (§2) Compounds 1 and 14 diluted in DMSO were mixed with detected CDK protein (Invitrogen, USA) respectively, incubated at room temperature for 30 minutes; and then mixed with Kinase/Z-LYTE™ Peptide Substrate Mixture (Invitrogen, USA) and 4×ATP. The mixed system was transferred to a 384-well white opaque plate to react for 1 hour at room temperature; 5 μL of Development Solution (Invitrogen, USA) was added to react at room temperature for 1 hour, and finally Stop Reagent (Invitrogen, USA) was added to terminate the reaction and MD SpectraMax I3× microplate reader (Molecular Devices, USA) was used to read fluorescence values.

Another assay concerns the target T2, CDK7/cyclin HMNAT1 (Homo sapiens, UniProt P50613).
T2 construct: purchased Invitrogen, USA
The description is as above. It is filed as biochemical. Here is the method:
as §2

In another assay the target is T3, CDK2/cyclin A (Homo sapiens, UniProt P24941).
T3 construct: purchased Invitrogen, USA
The description is as above. It is filed as biochemical. Here is the method: as §2

The next assay concerns the target T4, CDK8/cyclin C (Homo sapiens, UniProt P49336).
T4 construct: purchased Invitrogen, USA
The assay is described as above. The assay is classed as biochemical. Here is the method:
as §2

The target of a further assay is T5, CDK9/cyclin T1 (Homo sapiens, UniProt P50750).
T5 construct: purchased Invitrogen, USA
T5 sequence (P50750 whole entry): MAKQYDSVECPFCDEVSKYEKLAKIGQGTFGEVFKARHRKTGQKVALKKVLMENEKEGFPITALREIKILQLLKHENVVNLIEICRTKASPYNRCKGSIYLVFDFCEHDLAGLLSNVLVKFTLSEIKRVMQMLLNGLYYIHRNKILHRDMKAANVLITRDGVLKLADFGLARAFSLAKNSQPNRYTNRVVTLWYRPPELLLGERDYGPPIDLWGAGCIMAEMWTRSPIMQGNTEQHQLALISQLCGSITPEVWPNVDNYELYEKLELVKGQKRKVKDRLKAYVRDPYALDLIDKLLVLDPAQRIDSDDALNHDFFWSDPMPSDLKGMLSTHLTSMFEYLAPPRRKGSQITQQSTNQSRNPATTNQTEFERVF
T5 sequence (O60563 whole entry partner): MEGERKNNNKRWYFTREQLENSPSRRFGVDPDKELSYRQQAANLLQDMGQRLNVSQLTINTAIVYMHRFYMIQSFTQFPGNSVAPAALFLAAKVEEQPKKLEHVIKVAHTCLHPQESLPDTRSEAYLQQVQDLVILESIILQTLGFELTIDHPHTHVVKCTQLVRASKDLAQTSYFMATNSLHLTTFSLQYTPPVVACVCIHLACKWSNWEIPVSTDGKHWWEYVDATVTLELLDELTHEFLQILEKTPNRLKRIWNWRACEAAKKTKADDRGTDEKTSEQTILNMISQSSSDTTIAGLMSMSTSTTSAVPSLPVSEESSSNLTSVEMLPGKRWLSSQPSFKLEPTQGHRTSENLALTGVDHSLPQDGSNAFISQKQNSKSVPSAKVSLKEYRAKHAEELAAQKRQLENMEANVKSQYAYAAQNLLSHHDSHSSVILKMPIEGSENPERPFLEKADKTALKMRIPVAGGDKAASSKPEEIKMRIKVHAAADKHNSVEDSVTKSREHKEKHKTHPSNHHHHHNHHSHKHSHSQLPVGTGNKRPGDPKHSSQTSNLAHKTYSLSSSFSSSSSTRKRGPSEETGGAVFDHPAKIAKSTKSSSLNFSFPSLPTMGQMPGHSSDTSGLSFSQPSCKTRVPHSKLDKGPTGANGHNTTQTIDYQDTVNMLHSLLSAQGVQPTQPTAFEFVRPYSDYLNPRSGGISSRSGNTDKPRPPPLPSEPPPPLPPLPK
The assay is described as above. The assay is classed as biochemical. Here is the method:
as §2

The target of another assay is T6, CDK3/cyclin E1 (Homo sapiens, UniProt Q00526).
T6 construct: purchased Invitrogen, USA
The description is as above. The assay is classed as biochemical. Here is the method: as §2

The next assay addresses T7, CDK1/cyclin B (Homo sapiens, UniProt P06493).
T7 construct: purchased Invitrogen, USA
The description is as above. The assay is classed as biochemical. On the procedure: as §2

A further assay concerns the target T8, CDK11(non-active) (Homo sapiens, UniProt Q9BWU1).
T8 construct: purchased Invitrogen, USA
Described as above. The assay is classed as biochemical. On the procedure: as §2

The target in the next assay is T9, CDK14/cyclin Y (Homo sapiens, UniProt O94921).
T9 construct: purchased Invitrogen, USA
Described as above. The assay is classed as biochemical. Here is the method:
as §2

A further assay addresses T10, CDK5/p25 (Homo sapiens, UniProt Q00535).
T10 construct: purchased Invitrogen, USA
Described as above. It is filed as biochemical. On the procedure: as §2

Assay [6] concerns phosphorylation of RNAPII, MCL-1, and c-MYC in OCI-AML-3. The assay can be described thus: Effect on signaling pathway downstream of CDK9. The assay is classed as cell-based. As to conditions: OCI-AML-3, 0.03-3 μM, 2 hours. Here is the method: (§3) Against four cells, acute myelocytic leukemia cell line (AML) OCI-AML-3, acute promyelocytic leukemia cell line NB-4, acute myelocytic leukemia cell line (AML) HL-60 and acute myelocytic leukemia cell line (AML) MV4-11 (all purchased from ATCC), by measuring the biochemical endpoints and functional endpoints of multiple cells, the effect of compound 1 was evaluated on CDK9 in cells and other protein kinases related to its signaling pathway, such as RNAPII, XIAP, MCL-1, c-MYC, BCL-2 and so on. […] The effect of Compound 1 on the phosphorylation of CDK9, RNAPII, XIAP, MCL-1, c-MYC, BCL-2 in these cell lines was determined (FIG. 1a-d).

Assay [7] has as its system phosphorylation of RNAPII, MCL-1, and c-MYC in NB-4. The assay can be described thus: Effect on signaling pathway downstream of CDK9. The assay is classed as cell-based. As to conditions: NB-4, 0.03-3 μM, 2 hours. On the procedure: as §3
The subject of assay [8] is phosphorylation of RNAPII, MCL-1, and c-MYC in MV4-11. The assay can be described thus: Effect on signaling pathway downstream of CDK9. It is filed as cell-based. The following applies: MV4-11, 0.03-3 μM, 2 hours. Here is the method:
as §3

The subject of assay [9] is phosphorylation of RNAPII, MCL-1, and c-MYC in HL-60. Put plainly: Effect on signaling pathway downstream of CDK9. The following applies: HL-60, 0.03-3 μM, 2 hours. It is filed as cell-based. On the procedure:
as §3

Assay [10] has as its system acute myelocytic leukemia cell line (AML) MV4-11. The assay can be described thus: Effect on cell cycle distribution, PI staining, flow cytometry. It is filed as cell-based. The following applies: MV4-11, 0.01-0.1 μM, 12, 24 or 48 hours. On the procedure:
(§4) In order to study in which cycle the cells were prevented after administration, in the three cell lines, acute promyelocytic leukemia cell line NB-4, acute myelocytic leukemia cell line (AML) HL-60, and acute myelocytic leukemia cell line (AML) MV4-11, the effects of compound 1 on the cell cycle distribution of these cell lines were tested. […] The cell cycle distribution was measured by flow cytometry (BD FACS Calibur).
(A flow cytometer gives signals particle by particle.)

Assay [11] concerns acute myelocytic leukemia cell line (AML) HL-60. Described as above. It is filed as cell-based. As to conditions: HL-60, 0.01-0.1 μM, 12, 24 or 48 hours. On the procedure:
as §4

The test system of assay [12] is human non-small cell lung cancer cells, human small cell lung cancer cells, lung adenocarcinoma cells, and breast cancer cells. The assay can be described thus: Cancer cell growth, cells of cancer type other than hematological cancer as a panel. The assay is classed as cell-based. As to conditions: lung and breast cancer cells of table 3. The source says: In the examples, we used acute myelocytic leukemia (AML) OCI-AML-3, acute promyelocytic leukemia cell line NB-4, MDS-RAEB (myelodysplastic syndrome-excess blasts type) cell line SKM-1, human leukemia cell Nomo-1, acute myeloid leukemia cell line MOLM14, acute myeloid leukemia cell line MOLM13, acute myeloid leukemia cell line MV4-11, acute myeloid leukemia cell line HL-60, acute myeloid leukemia cell line OCI-AML-2, histiocytic lymphoma U-937, acute B cell leukemia cell line MEC-1, acute B cell leukemia cell line MEC-2, acute megakaryoblastic leukemia CMK, hamster lung cell CHL, hamster ovary cell CHO, human non-small cell lung cancer cell H1975, human non-small cell lung cancer cell H358, human small cell lung cancer cell H209, human lung adenocarcinoma cell H1395, human non-small cell lung cancer cell PC-9, human lung cancer cell H3122, human non-small cell lung cancer cell H2122, human non-small cell lung cancer cell H1915, human lung adenocarcinoma cell H1355, human non-small cell lung cancer cell HCC827, human breast cancer cell MDA-MB-231, human breast cancer cell MDA-MB-468, human breast cancer cell MCF-7, human breast cancer cell T47D, human breast cancer cell SK-Br-3, the above cells were purchased from ATCC. […]

T4 sequence (P49336 whole entry): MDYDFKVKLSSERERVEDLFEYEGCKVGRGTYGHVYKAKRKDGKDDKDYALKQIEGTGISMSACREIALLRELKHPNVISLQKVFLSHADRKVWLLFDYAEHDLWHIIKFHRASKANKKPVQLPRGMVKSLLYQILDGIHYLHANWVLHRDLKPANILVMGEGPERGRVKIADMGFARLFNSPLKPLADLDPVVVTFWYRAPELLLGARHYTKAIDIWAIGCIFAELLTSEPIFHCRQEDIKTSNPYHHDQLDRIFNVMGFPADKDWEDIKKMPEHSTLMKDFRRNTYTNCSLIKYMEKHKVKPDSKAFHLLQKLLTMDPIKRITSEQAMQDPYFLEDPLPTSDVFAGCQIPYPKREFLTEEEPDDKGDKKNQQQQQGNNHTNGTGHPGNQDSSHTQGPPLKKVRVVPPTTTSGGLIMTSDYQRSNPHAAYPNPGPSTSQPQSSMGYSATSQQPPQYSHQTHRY
T4 sequence (P24863 whole entry partner): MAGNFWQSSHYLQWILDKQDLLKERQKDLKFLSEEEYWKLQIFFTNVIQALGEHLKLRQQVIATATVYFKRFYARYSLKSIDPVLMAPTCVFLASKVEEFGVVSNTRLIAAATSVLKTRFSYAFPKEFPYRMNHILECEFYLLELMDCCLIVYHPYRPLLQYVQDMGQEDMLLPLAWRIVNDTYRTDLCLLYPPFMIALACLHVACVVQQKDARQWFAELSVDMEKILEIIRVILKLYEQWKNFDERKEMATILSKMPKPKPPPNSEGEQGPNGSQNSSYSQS
T2 sequence (P50613 whole entry): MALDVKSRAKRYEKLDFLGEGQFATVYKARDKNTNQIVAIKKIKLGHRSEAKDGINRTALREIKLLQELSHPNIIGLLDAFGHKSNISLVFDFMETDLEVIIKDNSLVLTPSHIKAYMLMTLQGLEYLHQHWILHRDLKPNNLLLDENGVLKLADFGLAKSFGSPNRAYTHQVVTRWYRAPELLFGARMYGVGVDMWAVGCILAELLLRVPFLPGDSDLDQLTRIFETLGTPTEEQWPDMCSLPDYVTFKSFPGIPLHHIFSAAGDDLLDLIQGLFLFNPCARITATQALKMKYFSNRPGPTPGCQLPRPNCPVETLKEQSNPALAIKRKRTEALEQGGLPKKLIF
T2 sequence (P51946 whole entry partner): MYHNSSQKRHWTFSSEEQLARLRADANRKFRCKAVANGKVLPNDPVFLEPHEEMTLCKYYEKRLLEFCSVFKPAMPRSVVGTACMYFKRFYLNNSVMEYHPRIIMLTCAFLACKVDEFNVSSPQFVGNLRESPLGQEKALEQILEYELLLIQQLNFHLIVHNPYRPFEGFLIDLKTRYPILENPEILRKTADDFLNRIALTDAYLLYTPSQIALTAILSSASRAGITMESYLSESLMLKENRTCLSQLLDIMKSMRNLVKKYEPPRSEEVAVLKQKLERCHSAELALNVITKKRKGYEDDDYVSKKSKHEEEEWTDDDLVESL
T2 sequence (P51948 whole entry partner): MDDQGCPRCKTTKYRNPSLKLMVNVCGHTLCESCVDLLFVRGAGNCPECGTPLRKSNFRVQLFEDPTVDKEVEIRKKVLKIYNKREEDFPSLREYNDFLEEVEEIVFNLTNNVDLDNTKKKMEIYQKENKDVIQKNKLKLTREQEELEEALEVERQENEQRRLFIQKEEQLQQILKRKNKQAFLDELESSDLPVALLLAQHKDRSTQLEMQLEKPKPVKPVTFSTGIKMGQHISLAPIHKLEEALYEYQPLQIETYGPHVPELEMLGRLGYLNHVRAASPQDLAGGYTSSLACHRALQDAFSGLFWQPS
T7 sequence (P06493 whole entry): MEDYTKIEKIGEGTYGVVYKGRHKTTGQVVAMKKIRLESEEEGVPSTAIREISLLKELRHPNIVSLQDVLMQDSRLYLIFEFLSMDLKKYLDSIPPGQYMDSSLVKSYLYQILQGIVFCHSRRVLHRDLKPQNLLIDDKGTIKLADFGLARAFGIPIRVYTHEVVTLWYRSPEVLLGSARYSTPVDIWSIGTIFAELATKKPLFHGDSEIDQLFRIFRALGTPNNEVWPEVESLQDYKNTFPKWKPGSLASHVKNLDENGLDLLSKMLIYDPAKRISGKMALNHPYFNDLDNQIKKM
T7 sequence (P14635 whole entry partner): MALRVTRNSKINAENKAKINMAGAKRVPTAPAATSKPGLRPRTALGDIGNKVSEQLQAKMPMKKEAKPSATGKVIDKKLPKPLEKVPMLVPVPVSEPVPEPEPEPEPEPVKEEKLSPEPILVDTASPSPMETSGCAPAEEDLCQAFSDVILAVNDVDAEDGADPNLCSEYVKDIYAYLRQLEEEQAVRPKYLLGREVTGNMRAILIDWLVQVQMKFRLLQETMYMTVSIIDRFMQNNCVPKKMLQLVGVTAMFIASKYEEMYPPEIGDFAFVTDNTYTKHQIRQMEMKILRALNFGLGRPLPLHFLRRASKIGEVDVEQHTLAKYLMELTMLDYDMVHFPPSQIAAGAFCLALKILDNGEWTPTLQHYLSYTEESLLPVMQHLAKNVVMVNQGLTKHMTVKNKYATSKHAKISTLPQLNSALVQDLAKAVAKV
T8 sequence (Q9BWU1 whole entry): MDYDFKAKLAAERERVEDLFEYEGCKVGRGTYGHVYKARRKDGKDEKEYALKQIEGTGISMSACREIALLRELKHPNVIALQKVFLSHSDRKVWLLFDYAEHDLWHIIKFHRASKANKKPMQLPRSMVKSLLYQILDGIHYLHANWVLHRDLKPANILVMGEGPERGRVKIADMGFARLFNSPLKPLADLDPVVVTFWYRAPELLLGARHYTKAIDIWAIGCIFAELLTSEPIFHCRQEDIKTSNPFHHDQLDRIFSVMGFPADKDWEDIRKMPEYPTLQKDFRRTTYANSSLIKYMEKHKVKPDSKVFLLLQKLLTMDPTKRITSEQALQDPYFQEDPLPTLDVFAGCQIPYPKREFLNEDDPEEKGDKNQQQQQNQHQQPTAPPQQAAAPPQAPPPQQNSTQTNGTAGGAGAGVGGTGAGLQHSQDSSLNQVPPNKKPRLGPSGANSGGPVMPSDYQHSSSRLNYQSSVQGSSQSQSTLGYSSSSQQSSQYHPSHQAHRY

Turning to `COC[C@@H](C)N[C@H]1CC[C@H](Nc2cc(-c3csc(NCC4(C#N)CCOCC4)n3)c(Cl)cn2)CC1` [Compound 1, 4-(((4-(5-chloro-2-(((1R,4r)-4-(((R)-1-methoxypropyl-2-yl)amino)cyclohexyl)amino)pyridin-4-yl)thiazol-2-yl)amino)methyl)tetrahydro-2H-pyran-4-carbonitrile], the GI50 came to 25 nM in assay [1] and 33 nM in assay [5]. Moreover, the IC50 in assay [2] is 43 nM; in assay [3] it was 40 nM; in assay [4], 18 nM; against CDK16/cyclin Y it was 195 nM; against CDK7/cyclin HMNAT1, 3700 nM; against CDK2/cyclin A, 6850 nM. Further, the IC50 is more than 10000 nM against CDK8/cyclin C; 0.928 nM at CDK9/cyclin T1; more than 10000 nM at CDK3/cyclin E1; 5410 nM against CDK1/cyclin B; more than 10000 nM against CDK11(non-active); 2710 nM on CDK14/cyclin Y. On CDK5/p25, this compound showed an IC50 of 6950 nM. The “effect on the phosphorylation of RNAPII, MCL-1, and c-MYC directly downstream of CDK9 protein” value in assay [6], in assay [7], in assay [8] and in assay [9] was “significant inhibitory effect” in each case. For the same compound, the “effect on the cell cycle” value in assay [10] and in assay [11] was “blocked the cells in G0-G1 phase” in each case. For the same compound, the “inhibitory effects on cancer cells tested (in words)” value in [12] is on record as “significant inhibitory effects”.

A word on the GI50: it is the concentration that inhibits growth by half. Low values mean greater sensitivity of the cells, high ones lower sensitivity of the cells. Broadly, the IC50 is the concentration that gives 50% inhibition. Low values mean inhibition by little substance, high ones a need for much substance.
